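GI50 marks 50% less growth. TGI is the concentration that stops growth completely.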
How the values were obtained:
Test in all cases: growth of human tumour cells (NCI), 384-well format
[1] = tested on: NCI/ADR-RES ovarian
[2] = tested on: LOX IMVI melanoma
[3] = tested on: ACHN renal
[4] = tested on: SN12C renal
[5] = tested on: OVCAR-4 ovarian
[6] = tested on: NCI-H322M lung
[7] = tested on: TK-10 renal
[8] = tested on: HOP-92 NSCLC
[9] = tested on: IGROV1 ovarian
[10] = tested on: T-47D breast
[11] = tested on: MCF7 breast
[12] = tested on: SNB-19 CNS
[13] = tested on: HCT-15 colon
[14] = tested on: SF-268 CNS
[15] = tested on: OVCAR-5 ovarian
[16] = tested on: NCI-H226 lung
[17] = tested on: MALME-3M melanoma
[18] = tested on: CAKI-1 renal
[19] = tested on: UACC-257 melanoma
[20] = tested on: EKVX NSCLC
[21] = tested on: HOP-62 NSCLC
[22] = tested on: KM12 colon
[23] = tested on: RXF 393 renal
[24] = tested on: A549 NSCLC
[25] = tested on: PC-3 prostate
[26] = tested on: NCI-H23 lung
[27] = tested on: SK-OV-3 ovarian
[28] = tested on: A498 renal
[29] = tested on: UO-31 renal
[30] = tested on: CCRF-CEM leukemia
[31] = tested on: MOLT-4 leukemia
[32] = tested on: HS 578T breast
[33] = tested on: NCI-H522 lung
[34] = tested on: HL-60(TB) leukemia
[35] = tested on: NCI-H460 NSCLC
[36] = tested on: SK-MEL-5 melanoma
[37] = tested on: RPMI-8226 leukemia
[38] = tested on: HT29 colon
[39] = tested on: COLO 205 colon
[40] = tested on: OVCAR-3 ovarian
[41] = tested on: SW-620 colon
[42] = tested on: SR leukemia
[43] = tested on: SF-295 CNS
[44] = tested on: OVCAR-8 ovarian
[45] = tested on: SK-MEL-28 melanoma
[46] = tested on: MDA-MB-231 breast
[47] = tested on: SK-MEL-2 melanoma
[48] = tested on: M14 melanoma
[49] = tested on: 786-0 renal
[50] = tested on: HCC-2998 colon
[51] = tested on: U251 glioblastoma
[52] = tested on: MDA-MB-435 melanoma
[53] = tested on: BT-549 breast
[54] = tested on: UACC-62 melanoma
[55] = tested on: DU-145 prostate
[56] = tested on: SNB-75 CNS
[57] = tested on: MDA-MB-468 breast
[58] = tested on: SF-539 CNS

CC(=O)O[C@@]12CO[C@@H]1C[C@H](O)[C@@]1(C)C(=O)[C@H](O)C3=C(C)[C@@H](OC(=O)[C@H](O)[C@@H](NC(=O)OC(C)(C)C)c4ccccc4)C[C@@](O)([C@@H](OC(=O)c4ccccc4)[C@H]21)C3(C)C
GI50 [1]: 0.782 µM | TGI [1]: 2.26 µM | TGI [2]: 17.4 µM | GI50 [3]: 0.0201 µM | TGI [3]: 20.9 µM | TGI [4]: 21.2 µM | TGI [5]: 39.9 µM | TGI [6]: 31.3 µM | GI50 [7]: < 0.0143 µM | TGI [7]: > 47.4 µM | TGI [8]: 33.2 µM | TGI [9]: 27.8 µM | TGI [10]: > 100 µM | TGI [11]: 24.7 µM | TGI [12]: > 70.7 µM | GI50 [13]: < 0.0151 µM | TGI [13]: 1.79 µM | TGI [14]: 36.1 µM | TGI [15]: 36.3 µM | TGI [16]: 22.5 µM | GI50 [17]: 12 µM | TGI [17]: 24.8 µM | TGI [18]: 18 µM | TGI [19]: 31.6 µM | TGI [20]: 35.8 µM | TGI [21]: 17.3 µM | TGI [22]: 24 µM | TGI [23]: < 0.0108 µM | TGI [24]: 29.1 µM | TGI [25]: 37.5 µM | TGI [26]: 27.3 µM | TGI [27]: > 100 µM | TGI [28]: 18.7 µM | GI50 [29]: 0.0791 µM | TGI [29]: 51.8 µM

C/C=C/C/C=C/CCC(=O)[C@H]1O[C@H]1C(N)=O
GI50 [1]: 15.4 µM | TGI [1]: 31.1 µM | GI50 [30]: 3.26 µM | TGI [30]: 11.3 µM | GI50 [3]: 16.9 µM | TGI [3]: 30.7 µM | GI50 [4]: 13.4 µM | TGI [4]: 26.4 µM | GI50 [31]: 4.91 µM | TGI [31]: 16.9 µM | GI50 [32]: 8.38 µM | TGI [32]: 21 µM | GI50 [33]: 3.29 µM | TGI [33]: 11.3 µM | GI50 [34]: 7.3 µM | TGI [34]: 19.3 µM | GI50 [5]: 3.76 µM | TGI [5]: 15.6 µM | GI50 [6]: 17.8 µM | TGI [6]: 31.9 µM | GI50 [7]: 18.1 µM | TGI [7]: 32.1 µM | GI50 [35]: 12.3 µM | TGI [35]: 25 µM | GI50 [8]: 11.5 µM | TGI [8]: 23.9 µM | GI50 [36]: 7.25 µM | TGI [36]: 19.8 µM | GI50 [37]: 2.82 µM | TGI [37]: 6.86 µM | GI50 [38]: 18.1 µM | TGI [38]: 32.7 µM | GI50 [9]: 14.6 µM | TGI [9]: 28.8 µM | GI50 [39]: 21 µM | TGI [39]: 35.4 µM | GI50 [40]: 12.3 µM | TGI [40]: 24.8 µM | GI50 [41]: 14 µM | TGI [41]: 27.3 µM | GI50 [10]: 5.89 µM | TGI [10]: 17.6 µM | GI50 [42]: 2.21 µM | TGI [42]: 4.91 µM | GI50 [43]: 11.9 µM | TGI [43]: 24.6 µM | GI50 [11]: 5.89 µM | TGI [11]: 18.4 µM | GI50 [12]: 14.1 µM | TGI [12]: 28.2 µM | GI50 [13]: 6.61 µM | TGI [13]: 19.6 µM | GI50 [14]: 14.9 µM | TGI [14]: 30 µM | GI50 [44]: 14.2 µM | TGI [44]: 27.7 µM | GI50 [15]: 17.6 µM | TGI [15]: 33.2 µM | GI50 [16]: 7.61 µM | TGI [16]: 19.7 µM | GI50 [17]: 12.7 µM | TGI [17]: 25.3 µM | GI50 [45]: 16.3 µM | TGI [45]: 30.2 µM | GI50 [18]: 14 µM | TGI [18]: 27 µM | GI50 [46]: 11.6 µM | TGI [46]: 24.5 µM | GI50 [19]: 3.27 µM | TGI [19]: 9.64 µM | GI50 [20]: 6.48 µM | TGI [20]: 18.9 µM | GI50 [47]: 8.59 µM | TGI [47]: 20.3 µM | GI50 [21]: 1.34 µM | TGI [21]: 5.19 µM | GI50 [22]: 13 µM | TGI [22]: 26.1 µM | GI50 [48]: 12.2 µM | TGI [48]: 25 µM | GI50 [49]: 14.4 µM | TGI [49]: 28.2 µM | GI50 [23]: 0.407 µM | TGI [23]: 3.86 µM | GI50 [24]: 16.6 µM | TGI [24]: 30.4 µM | GI50 [50]: 12.7 µM | TGI [50]: 25.3 µM | GI50 [25]: 11.1 µM | TGI [25]: 23.4 µM | GI50 [51]: 11.7 µM | TGI [51]: 24.7 µM | GI50 [52]: 16 µM | TGI [52]: 30 µM | GI50 [26]: 3.72 µM | TGI [26]: 12.7 µM | GI50 [27]: 16.7 µM | TGI [27]: 33.2 µM | GI50 [53]: 3.21 µM | TGI [53]: 12.8 µM | GI50 [54]: 12.8 µM | TGI [54]: 27.1 µM | GI50 [55]: 12.7 µM | TGI [55]: 25.4 µM | GI50 [28]: 17.7 µM | TGI [28]: 31.7 µM | GI50 [56]: 2.19 µM | TGI [56]: 7.15 µM | GI50 [57]: 2.17 µM | TGI [57]: 4.86 µM | GI50 [58]: 13.8 µM | TGI [58]: 27.5 µM

From PubChem BioAssay (NCI)
